Reference: US6737383B1, “Herbicidal oxadiazolidines” (priority 1999, dated 2004)

Tested on: Pioneer hybrid P33G26 corn
Assay: Test H corn injury, herbicide and safener mixtures applied to soil
Settings: in vivo
Description: Mixtures of the herbicide and safeners were applied to pots of a soil mixture previously sown with corn. Pioneer hybrid P33G26 corn was sown in pots containing a sterile mix of 60% sassafras soil and 40% Metro Mix 360® growing medium (pH 6.7, O.M. 2%). Test compounds were dissolved in AGWT (a mixture of 0.25% Tween 20 surfactant, 5% water, 5% glycerin and 89.75% acetone) and sprayed on the soil as pots passed under a stationary 8002E nozzle. Treatments were applied at a 33 gal/acre rate of the AGWT carrier. After treatment, the test pots were placed in the greenhouse and watered. There were two replications for each treatment. Each pot contained eight corn seeds. The pots within each replication were placed in random positions on greenhouse benches. Test plants were fertilized as they were watered with approximately 200 ppm of N (as water soluble 20-20-20 fertilizer) which was metered into the water lines with a fertilizer injector. Daytime temperatures was 23-30° C. and night time temperature was 18-25° C. The test plants were supplemented with artificial lighting. The lights were activated whenever the natural light intensity dropped below the programmed threshold. Day length was maintained for approximately 14 hours.
The test was evaluated approximately 12 days after treatment. […]

## CC1COc2ccccc2N1C(=O)C(Cl)Cl (stereo not shown) [benoxacor]
  Safening of Compound 113 on corn: functioned very effectively as safeners
